Assay results from US20240368127A1, “HSD17B13 INHIBITORS AND USES THEREOF” (FL2022-001, Inc., priority 2021, published 2024).

Target: T1, Recombinant human HSD17B13 enzyme (Homo sapiens, UniProt Q7Z5P4)
T1 sequence (Q7Z5P4 20-300): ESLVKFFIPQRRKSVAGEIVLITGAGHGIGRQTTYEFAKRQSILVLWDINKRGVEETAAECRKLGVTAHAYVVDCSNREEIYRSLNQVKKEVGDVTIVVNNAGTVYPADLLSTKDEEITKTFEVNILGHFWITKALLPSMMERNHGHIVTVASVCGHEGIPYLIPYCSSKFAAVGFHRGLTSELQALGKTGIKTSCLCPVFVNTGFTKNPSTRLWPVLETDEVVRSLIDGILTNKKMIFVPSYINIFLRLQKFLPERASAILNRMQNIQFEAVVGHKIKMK
Experiment: HSD17b13 NAD(P)H-Glo biochemical assay
Details: 50 μM estradiol, 1 mM NAD+, 37° C. for 3 hours; read-out: HSD17β13 IC50
Procedure, shortened: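 Enzyme preincubated with inhibitor 20 min at RT in 20 mM Tris pH7.4, 0.002% Tween-20, 0.02% BSA, then reacted 3 h at 37° C with 50 μM estradiol and 1 mM NAD+ (final). NADH formation read by NAD(P)H-Glo luminescence after 1 h at RT.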

Structure (SMILES): CS(=O)(=O)N1CCN(c2ncc3c(n2)c(Cl)nn3-c2cc(C(F)(F)F)c(F)c(O)c2F)[C@H](Cc2ccccc2)C1 [Compound 2.18, (R)-3-(5-(2-Benzyl-4-(methylsulfonyl)piperazin-1-yl)-3-chloro-1H-pyrazolo[4,3-d]pyrimidin-1-yl)-2,6-difluoro-5-(trifluoromethyl)phenol]
- IC50: ≤ 100 nM
